Experimental data from US20230079045A1 (priority 2019, published 2023).

How the values were obtained:
Assay type in all cases: cell-based, influenza virus
[1] = test system: IFVA/Weiss/43; experiment: cytopathic effect (CPE) antiviral test in MDCK cells, IFVA/Weiss/43; conditions: unidentified influenza virus, MDCK, 120 h, read-out: EC50(IFVA/Weiss/43), MDCK cells, CPE method, CCK-8 cell viability, 5 days
[2] = test system: IFVA/Mal/302/54; experiment: cytopathic effect (CPE) antiviral test in MDCK cells, IFVA/Mal/302/54; conditions: unidentified influenza virus, MDCK, 120 h, read-out: EC50(IFVA/Mal/302/54), MDCK cells, CPE method, CCK-8 cell viability, 5 days
[3] = test system: IFV A/PR/8/34; experiment: cytopathic effect (CPE) antiviral test in MDCK cells, IFV A/PR/8/34; conditions: unidentified influenza virus, PR/8, MDCK, 120 h, read-out: EC50(IFV A/PR/8/34)

| Compound | EC50 [1] [nM] | EC50 [2] [nM] | EC50 [3] [nM] |
| --- | --- | --- | --- |
| O=C(Nc1ccc2oc(-c3ccnc(C(=O)N4CCN(C(c5ccccc5)c5nnn(C(F)F)n5)CC4)c3)nc2c1)C1CC1 (stereo not drawn) [Compound 36, N-(2-(2-(4-((2-(difluoromethyl)-2H-tetrazol-5-yl)(phenyl)methyl)piperazine-1-carbonyl)pyridin-4-yl)benzo[d]oxazol-5-yl)cyclopropanecarboxamide] | 4 | 10 | 17 |
| O=C(Nc1ccc2oc(-c3ccnc(C(=O)N4CCN(C(c5ccccc5)c5nnn(C(F)F)n5)CC4)c3)cc2c1)[C@@H]1C[C@@H]1F (mixture of isomers) [Compound 111, (1S,2S)—N-(2-(2-(4-((R/S)-(2-(difluoromethyl)-2H-tetrazol-5-yl)(phenyl)methyl)piperazine-1-carbonyl)pyridin-4-yl)benzofuran-5-yl)-2-fluorocyclopropane-1-carboxamide] | 0.5 | 2 | 2 |
| Cn1ccnc1-c1ccc2nc(-c3ccnc(C(=O)N4CCN(C(c5ccccc5)c5nnn(C(F)F)n5)CC4)c3)oc2c1 (racemic) [Compound 107, (R/S)-(4-((2-(difluoromethyl)-2H-tetrazol-5-yl)(phenyl)methyl)piperazin-1-yl)(4-(6-(1-methyl-1H-imidazol-2-yl)benzo[d]oxazol-2-yl)pyridin-2-yl)methanone] | 2 | 6 | 9 |
| Cn1cc(-c2ccc3oc(-c4ccnc(C(=O)N5CCN(C(c6ccccc6)c6nnn(C(F)F)n6)CC5)c4)nc3c2)cn1 (racemic) [Compound 105, (R/S)-(4-((2-(difluoromethyl)-2H-tetrazol-5-yl)(phenyl)methyl)piperazin-1-yl)(4-(5-(1-methyl-1H-pyrazol-4-yl)benzo[d]oxazol-2-yl)pyridin-2-yl)methanone] | 7 | 9 | 11 |
| O=C(Nc1ccc2oc(-c3ccnc(C(=O)N4CCN([C@H](c5ccccc5)c5nnn(C(F)F)n5)CC4)c3)nc2c1)[C@@H]1CC1(F)F [Compound 73, (S)—N-(2-(2-(4-((R)-(2-(difluoromethyl)-2H-tetrazol-5-yl)(phenyl)methyl)piperazine-1-carbonyl)pyridin-4-yl)benzo[d]oxazol-5-yl)-2,2-difluorocyclopropane-1-carboxamide] | 2 | 6 | 3 |
| Cn1nnc(C(c2ccccc2)N2CCN(C(=O)c3cc(-c4nc5cc(N6CCCC6=O)ccc5o4)ccn3)CC2)n1 (racemic) [Compound 45, (R/S)-1-(2-(2-(4-((2-methyl-2H-tetrazol-5-yl)(phenyl)methyl)piperazine-1-carbonyl)pyridin-4-yl)benzo[d]oxazol-5-yl)pyrrolidin-2-one] | 15 | 12 | 27 |
| CC(=O)N(C)c1ccc2oc(-c3ccnc(C(=O)N4CCN(C(c5ccccc5)c5nnn(C(F)F)n5)CC4)c3)nc2c1 (racemic) [Compound 113, (R/S)—N-(2-(2-(4-((2-(difluoromethyl)-2H-tetrazol-5-yl)(phenyl)methyl)piperazine-1-carbonyl)pyridin-4-yl)benzo[d]oxazol-5-yl)-N-methylacetamide] | 19 | 18 | 20 |
| CC(=O)Nc1ccc2oc(-c3ccnc(C(=O)C4CCN(C(c5ccccc5)c5nnn(C(F)F)n5)CC4)c3)nc2c1 (racemic) [Compound 42, (R/S)—N-(2-(2-(1-((2-(difluoromethyl)-2H-tetrazol-5-yl)(phenyl)methyl)piperidine-4-carbonyl)pyridin-4-yl)benzo[d]oxazol-5-yl)acetamide] | 20 | 10 | 20 |
| O=C(Nc1ccc2nc(-c3ccnc(C(=O)N4CCN(C(c5ccccc5)c5nnn(C(F)F)n5)CC4)c3)oc2c1)C1CC1 (racemic) [Compound 104, (R/S)—N-(2-(2-(4-((2-(difluoromethyl)-2H-tetrazol-5-yl)(phenyl)methyl)piperazine-1-carbonyl)pyridin-4-yl)benzo[d]oxazol-6-yl)cyclopropanecarboxamide] | 12 | 16 | 59 |
| Cc1nnn(C(c2ccccc2)C2CCN(C(=O)c3cc(-c4nc5cc(NC(=O)[C@@H]6C[C@@H]6F)ccc5o4)ccn3)CC2)n1 (mixture of isomers) [Compound 120, (1S,2S)-2-fluoro-N-(2-(2-(4-((R/S)-(5-methyl-2H-tetrazol-2-yl)(phenyl)methyl)piperidine-1-carbonyl)pyridin-4-yl)benzo[d]oxazol-5-yl)cyclopropanecarboxamide] | 3 | 14 | 12 |
| Cn1ccnc1-c1ccc2oc(-c3ccnc(C(=O)N4CCN(C(c5ccccc5)c5nnn(C(F)F)n5)CC4)c3)nc2c1 (stereo not drawn) [Compound 72, (4-((2-(difluoromethyl)-2H-tetrazol-5-yl)(phenyl)methyl)piperazin-1-yl)(4-(5-(1-methyl-1H-imidazol-2-yl)benzo[d]oxazol-2-yl)pyridin-2-yl)methanone] | 4 | 4 | 4 |
| O=C(c1cc(-c2nc3cc(-c4cnsc4)ccc3o2)ccn1)N1CCN(C(c2ccccc2)c2nnn(C(F)F)n2)CC1 (racemic) [Compound 101, (R/S)-(4-((2-(difluoromethyl)-2H-tetrazol-5-yl)(phenyl)methyl)piperazin-1-yl)(4-(5-(isothiazol-4-yl)benzo[d]oxazol-2-yl)pyridin-2-yl)methanone] | 4 | 6 | 27 |
| Cc1nnn(C(c2ccccc2)C2CCN(C(=O)c3cc(-c4nc5cc(NC(=O)[C@@H]6C[C@@H]6F)ccc5o4)ccn3)CC2)n1 (stereo partly drawn) [Compound 85, (1S,2S)-2-fluoro-N-(2-(2-(4-((5-methyl-2H-tetrazol-2-yl)(phenyl)methyl)piperidine-1-carbonyl)pyridin-4-yl)benzo[d]oxazol-5-yl)cyclopropanecarboxamide] | 4 | 4 | 4 |
| O=C(c1cc(-c2nc3cc(-c4cscn4)ccc3o2)ccn1)N1CCN(C(c2ccccc2)c2nnn(C(F)F)n2)CC1 (racemic) [Compound 110, (R/S)-(4-((2-(difluoromethyl)-2H-tetrazol-5-yl)(phenyl)methyl)piperazin-1-yl)(4-(5-(thiazol-4-yl)benzo[d]oxazol-2-yl)pyridin-2-yl)methanone] | 3 | 3 | – |
| CC(=O)Nc1ccc2oc(-c3ccc(C#N)c(C(=O)N4CCN(C(c5ccccc5)c5nnn(C)n5)CC4)c3)nc2c1 (stereo not drawn) [Compound 15, N-(2-(4-cyano-3-(4-((2-methyl-2H-tetrazol-5-yl)(phenyl)methyl)piperazine-1-carbonyl)phenyl)benzo[d]oxazol-5-yl)acetamide] | > 10000 | > 10000 | – |
| CC(=O)Nc1ccc2oc(-c3ccnc(C(=O)N4CC5CC(C4)N5C(c4ccccc4)c4nnn(C)n4)c3)nc2c1 (stereo not drawn) [Compound 23, N-(2-(2-(6-((2-methyl-2H-tetrazol-5-yl)(phenyl)methyl)-3,6-diazabicyclo[3.1.1]heptane-3-carbonyl)pyridin-4-yl)benzo[d]oxazol-5-yl)acetamide] | > 10000 | > 10000 | – |
| O=C(c1cc(-c2nc3cc(O[C@H]4CCOC4)ccc3o2)ccn1)N1CCN(C(c2ccccc2)c2nnn(C(F)F)n2)CC1 (stereo partly drawn) [Compound 39, (4-((2-(difluoromethyl)-2H-tetrazol-5-yl)(phenyl)methyl)piperazin-1-yl)(4-(5-(((S)-tetrahydrofuran-3-yl)oxy)benzo[d]oxazol-2-yl)pyridin-2-yl)methanone] | 4 | 11 | – |
| O=C(Nc1ccc2oc(-c3ccnc(C(=O)N4C5CCC4CN(C(c4ccccc4)c4nnn(C(F)F)n4)C5)c3)nc2c1)C1CC1 (stereo not drawn) [Compound 175, N-(2-(2-(3-((2-(difluoromethyl)-2H-tetrazol-5-yl)(phenyl)methyl)-3,8-diazabicyclo[3.2.1]octane-8-carbonyl)pyridin-4-yl)benzo[d]oxazol-5-yl)cyclopropanecarboxamide] | 13 | 21 | – |
| O=C1CCCN1c1ccc2oc(-c3ccnc(C(=O)N4C5CCC4CN(C(c4ccccc4)c4nnn(C(F)F)n4)C5)c3)nc2c1 (stereo not drawn) [Compound 176, 1-(2-(2-(3-((2-(difluoromethyl)-2H-tetrazol-5-yl)(phenyl)methyl)-3,8-diazabicyclo[3.2.1]octane-8-carbonyl)pyridin-4-yl)benzo[d]oxazol-5-yl)pyrrolidin-2-one] | 33 | 21 | – |
| Cn1nnc(C(c2ccccc2)N2CCN(C(=O)c3cc(-c4nc5cc(NC(=O)[C@@H]6CC6(F)F)ccc5o4)ccn3)CC2)n1 (stereo partly drawn) [Compound 24, (1S)-2,2-difluoro-N-(2-(2-(4-((2-methyl-2H-tetrazol-5-yl)(phenyl)methyl)piperazine-1-carbonyl)pyridin-4-yl)benzo[d]oxazol-5-yl)cyclopropane-1-carboxamide] | 12 | 32 | – |
| CC(=O)Nc1ccc2oc(-c3ccnc(C(=O)N4CCN(C(c5ccccc5)c5nnn(C)n5)[C@H](C)C4)c3)nc2c1 (mixture of isomers) [Compound 16a, N-(2-(2-((3R)-3-methyl-4-((2-methyl-2H-tetrazol-5-yl)(phenyl)methyl)piperazine-1-carbonyl)pyridin-4-yl)benzo[d]oxazol-5-yl)acetamide] | 7160 | > 10000 | – |
| O=C(Nc1ccc2oc(-c3ccnc(C(=O)N4CCN(C(c5ccccc5)c5nnn(C(F)F)n5)CC4)c3)nc2c1)[C@@H]1CC1(F)F (mixture of isomers) [Compound 29, (1S)—N-(2-(2-(4-((2-(difluoromethyl)-2H-tetrazol-5-yl)(phenyl)methyl)piperazine-1-carbonyl)pyridin-4-yl)benzo[d]oxazol-5-yl)-2,2-difluorocyclopropane-1-carboxamide] | 4 | 22 | – |
